Experimental data published in patent US9505798B2, “Steroid compounds as RORyt modulators and uses thereof” (New York University, priority 2010, dated 2016).
Where two headings read alike, the source gives them in different places.

Target: T1, mouse RORγt (Mus musculus, UniProt P51450)
T1 construct: mouse RORγt (amino acids 79 to the carboxyl terminal end); expressed in transfected cells
T1 sequence (P51450 79-495 isoform P51450-2): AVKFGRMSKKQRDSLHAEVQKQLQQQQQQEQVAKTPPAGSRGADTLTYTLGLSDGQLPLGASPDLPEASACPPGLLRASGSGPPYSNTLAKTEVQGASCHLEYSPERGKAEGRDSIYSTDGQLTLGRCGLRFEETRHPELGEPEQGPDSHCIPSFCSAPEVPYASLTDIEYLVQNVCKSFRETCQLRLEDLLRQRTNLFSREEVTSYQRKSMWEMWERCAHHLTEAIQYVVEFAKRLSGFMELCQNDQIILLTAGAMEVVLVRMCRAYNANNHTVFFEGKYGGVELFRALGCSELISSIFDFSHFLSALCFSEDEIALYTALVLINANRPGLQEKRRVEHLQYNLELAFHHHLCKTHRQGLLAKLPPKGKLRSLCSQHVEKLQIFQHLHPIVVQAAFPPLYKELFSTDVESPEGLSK
Assay: Drosophila S2 cell RORγt luciferase reporter
Type: cell-based
Source text: The Drosophila S2 cell line was originally purchased from Invitrogen and was maintained in Schneider's medium supplemented with 10% heat-inactivated bovine fetal calf serum and antibiotics (Invitrogen). […] The resulting chimeric gene was subcloned into the copper inducible pMT/V5-His A vector (Invitrogen). […] Coding sequences for firefly luciferase (Promega) were PCR amplified and subcloned into pUAST vector containing Gal4 binding enhancer sequences. Renilla luciferase construct under the polIII promoter was obtained from Dr. Dasgupta's laboratory (NYU medical center). In order to generate stable cell lines, cells were co-transfected with pMT-G4 DBD-RORγt, pMT-G4 DBD-RORα, pMT-G4 DBD-DHR3, or pMT-G4 DBDVP16 and pHygro plasmids (Invitrogen) and screened for resistant colonies in the presence of hygromycin (0.3 mg/mL). […] Using similar methods, stable clones with genomic integration of the luciferase reporters and other reporters were generated such as pMT-RORα_luc, pMT-DHR3_Luc, or pMT-VP16_luc.
The following representative compounds are tested for their RORγt inhibitory activity and toxicity.
Promega Dual-Glo system is widely used for HTS as the luciferase substrates. Cell culture medium was reduced to the final volume of 10 μl or less and 10 μl of Dual-glo and 10 μl of Stop-glo luciferase substrates were added in a sequencial manner (Promega). Firefly and Renilla luciferase activity was determined by measuring luminescence signals using an automated 384-well plate reader equipped with multiple stack units (such as the Analyst GT or Envision plate readers).
10,000 Drosophila stable S2 cells with genomic integration of the Cu2+-inducible G4 DBD-mouse RORγ construct were transfected with 5 ng of pUASTfirefly luciferase and 7 ng of Pol III-Renilla luciferase and dispensed into white bottom-tissue culture 384-well plates (Corning). […] The following morning, Stop-glo luciferase substrates (Promega) were used to measure luciferase activity.
The Drosophila S2 cell line was originally purchased from Invitrogen and was maintained in Schneider's Drosophila medium supplemented with 10% heat-inactivated bovine fetal calf serum and 1× antibiotic-antimycotic solution (Invitrogen). […] The resulting chimeric gene was subcloned into the copper inducible pMT/V5-His A vector (Invitrogen) and into the constitutive pAc vector. […] Coding sequences for firefly luciferase (Promega) were PCR amplified and subcloned into the pUAST vector containing five Gal4 binding enhancer sequences. The Renilla luciferase construct under a pol III promoter and the pAc vector were obtained from R. Dasgupta (NYU School of Medicine). To generate cell lines stably expressing various chimeric proteins upon copper addition, S2 cells were co-transfected with pMT plasmids encoding individual G4 DBD chimeric constructs and the pCoHygro plasmid (Invitrogen), before screening for resistant colonies in the presence of hygromycin (0.3 mg/mL). […] The human androgen receptor (hAR) expression plasmid pMK33-hAR and its reporter TAT3-Luc were obtained from M. Garabedian (NYU School of Medicine). […] R1881 (10 nM) and Dafachronic acid (10 μM) were used as ligands for hAR and Daf12. Upon treatment of cells with copper, in 384 well plates, there was specific increase in firefly luciferase activity versus normalized Renilla luciferase activity for all cell lines described above, validating the method for high-throughput screen.
Transfections of firefly and Renilla reporter constructs were performed using the Effectene kit from Qiagen according to the manufacturer's protocol with some modifications.

For `CC1O[C@@H](OC2C(C)O[C@H](OC3C(C)O[C@@H](O[C@H]4CC[C@@]5(C)[C@H](CC[C@@H]6[C@@H]5C[C@@H](O)[C@]5(C)[C@@H](C(CO)CCO)CC[C@]65O)C4)C[C@H]3O)C[C@H]2O)C[C@@H](O)C1O` (stereo partly shown) [Compound 13, 20,22-Dihydrodigoxin-21,23-diol], the IC50 was 11 to 20 µM and the “effect on RORγ transcriptional activity” value was “still possessed RORγ inhibitory activity”.

For `C[C@H]1O[C@@H](O[C@H]2[C@@H](O)C[C@H](O[C@H]3[C@@H](O)C[C@H](O[C@H]4CC[C@@]5(C)[C@H](CC[C@@H]6[C@@H]5C[C@@H](O)[C@]5(C)[C@@H](C7=CC(=O)OC7)CC[C@]65O)C4)O[C@@H]3C)O[C@@H]2C)C[C@H](O)[C@@H]1O` [Digoxin], the IC50 (S2 cell RORγt reporter, read-out: IC50) was 1 to 10 µM and the IC50 (read-out: IC50 (half-maximal inhibitory concentration), RORγ transcriptional activity) was 1.98 µM.
